From patent US6355799B1, “Substituted benzene compounds, process for their preparation, and herbicidal and defoliant compositions containing them” (ISK Americas Incorporated, priority 1997, dated 2002)

Columns and labels:
Assay type in all cases: in vivo
[1] = system: redroot pigweed (Amaranthus retroflexus, AMARE); test: Pre-emerge test, greenhouse herbicide activity screening; conditions: pre-emerge, rated 14 days after application, 0 = no damage, 100 = complete death
Procedure, shortened: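 Compounds in acetone were track-sprayed at 15-1000 g ai/ha (187 l/ha) on sandy loam pots: pre-emerge one day after seeding, post-emerge at 2-3 leaf stage with 0.25% v/v non-ionic surfactant. Phytotoxicity was rated 14 days later on a 0 (no damage) to 100 (complete death) scale.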

[2] = system: barnyardgrass (Echinochloa crus-galli, ECHCG); test: as above; conditions: pre-emerge, rated 14 days after application, 0 = no damage, 100 = complete death
Procedure, shortened: (§1)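 Rating: 0–100 visual injury, 14 DAA. Application: acetone, 187 l/ha, 15–1000 g ai/ha, flat-fan track sprayer with nozzle 40–45 cm above soil or canopy. Post-emerge runs used 0.25% v/v surfactant on 2–3 leaf plants.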

[3] = system: green foxtail (Setaria viridis, SETVI); test: as above; conditions: pre-emerge, rated 14 days after application, 0 = no damage, 100 = complete death
Procedure, shortened: as §1

[4] = system: ivyleaf morningglory (Ipomoea hederacea, IPOHE); test: as above; conditions: pre-emerge, rated 14 days after application, 0 = no damage, 100 = complete death
Procedure, shortened: as §1

[5] = system: johnsongrass (Sorghum halepense, SORHA); test: as above; conditions: pre-emerge, rated 14 days after application, 0 = no damage, 100 = complete death
Procedure, shortened: as §1

[6] = system: lambsquarters (Chenopodium album, CHEAL); test: as above; conditions: pre-emerge, rated 14 days after application, 0 = no damage, 100 = complete death
Procedure, shortened: as §1

[7] = system: large crabgrass (Digitaria sanguinalis, DIGSA); test: as above; conditions: pre-emerge, rated 14 days after application, 0 = no damage, 100 = complete death
Procedure, shortened: as §1

[8] = system: sicklepod (Cassia obtusifolia, CASOB); test: as above; conditions: pre-emerge, rated 14 days after application, 0 = no damage, 100 = complete death
Procedure, shortened: as §1

[9] = system: velvetleaf (Abutilon theophrasti, ABUTH); test: as above; conditions: pre-emerge, rated 14 days after application, 0 = no damage, 100 = complete death
Procedure, shortened: as §1

[10] = system: field corn (Zea mays L., var. Dekalb 535, CORN); test: Pre-emerge test, crop safety; conditions: pre-emerge, rated 14 days after application, 0 = no damage, 100 = complete death
Procedure, shortened: (§2)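 Compounds in acetone were track-sprayed at 187 l/ha, 15–1000 g ai/ha, onto sandy loam pots. Pre-emerge seeds were sown one day before spraying, with surface watering afterwards. Post-emerge plants were at the 2–3 leaf stage and sprayed with 0.25% v/v non-ionic surfactant. Injury was rated 0–100 at 14 days.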

[11] = system: upland rice (Oryza sp., var. Tebonnet, RICE); test: Pre-emerge test, crop safety; conditions: pre-emerge, rated 14 days after application, 0 = no damage, 100 = complete death
Procedure, shortened: as §2

[12] = system: barnyardgrass (Echinochloa crus-galli, ECHCG); test: Post-emerge test, greenhouse herbicide activity screening; conditions: phytotoxicity rating 0-100 (0 no damage, 100 complete death), 14 days after application
Procedure, shortened: (§3)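 Fourteen days after spraying, crop and weed injury was graded visually from 0, no effect, to 100, every plant dead. Test substances were dissolved in acetone and applied at 15–1000 g ai/ha with a flat-fan nozzle. Application was either pre-emergence, one day after sowing, or post-emergence at the 2–3 leaf stage.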

[13] = system: green foxtail (Setaria viridis, SETVI); test: as above; conditions: phytotoxicity rating 0-100 (0 no damage, 100 complete death), 14 days after application
Procedure, shortened: as §3

[14] = system: ivyleaf morningglory (Ipomoea hederacea, IPOHE); test: as above; conditions: phytotoxicity rating 0-100 (0 no damage, 100 complete death), 14 days after application
Procedure, shortened: as §3

[15] = system: johnsongrass (Sorghum halepense, SORHA); test: as above; conditions: phytotoxicity rating 0-100 (0 no damage, 100 complete death), 14 days after application
Procedure, shortened: as §3

[16] = system: lambsquarters (Chenopodium album, CHEAL); test: as above; conditions: phytotoxicity rating 0-100 (0 no damage, 100 complete death), 14 days after application
Procedure, shortened: as §3

[17] = system: large crabgrass (Digitaria sanguinalis, DIGSA); test: as above; conditions: phytotoxicity rating 0-100 (0 no damage, 100 complete death), 14 days after application
Procedure, shortened: as §3

[18] = system: redroot pigweed (Amaranthus retroflexus, AMARE); test: as above; conditions: phytotoxicity rating 0-100 (0 no damage, 100 complete death), 14 days after application
Procedure, shortened: as §3

[19] = system: sicklepod (Cassia obtusifolia, CASOB); test: as above; conditions: phytotoxicity rating 0-100 (0 no damage, 100 complete death), 14 days after application
Procedure, shortened: as §3

[20] = system: velvetleaf (Abutilon theophrasti, ABUTH); test: as above; conditions: phytotoxicity rating 0-100 (0 no damage, 100 complete death), 14 days after application
Procedure, shortened: as §3

[21] = system: field corn (Zea mays L., var. Dekalb 535, CORN); test: Post-emerge test, crop safety; conditions: phytotoxicity rating 0-100 (0 no damage, 100 complete death), 14 days after application
Procedure, shortened: (§4)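 Plants grown in 10 cm pots of sandy loam mix received acetone-dissolved compounds through a moving flat-fan nozzle. Doses ranged from 15 to 1000 g ai/ha. Pre-emerge pots were seeded one day earlier, post-emerge pots 8–21 days earlier. Fourteen days on, each pot was graded 0–100 for damage.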

[22] = system: upland rice (Oryza sp., var. Tebonnet, RICE); test: Post-emerge test, crop safety; conditions: phytotoxicity rating 0-100 (0 no damage, 100 complete death), 14 days after application
Procedure, shortened: as §4

COc1c(Cl)cc(F)c(-n2c(=O)cc(C(F)(F)F)n(C)c2=O)c1N(C(=O)C=C(C)C)C(=O)C=C(C)C [2-8]
0: Pre-emerge Herbicidal Activity ECHCG (phytotoxicity rating, scale 0-100) ([2]; 63 g ai/ha) | Pre-emerge Herbicidal Activity ECHCG (phytotoxicity rating, scale 0-100) ([2]; 250 g ai/ha) | Pre-emerge Herbicidal Activity IPOHE (phytotoxicity rating, scale 0-100) ([4]; 63 g ai/ha) | Pre-emerge Herbicidal Activity CASOB (phytotoxicity rating, scale 0-100) ([8]; 63 g ai/ha) | Pre-emerge Herbicidal Activity CASOB (phytotoxicity rating, scale 0-100) ([8]; 250 g ai/ha) | Pre-emerge Herbicidal Activity ABUTH (phytotoxicity rating, scale 0-100) ([9]; 63 g ai/ha) | Post-emerge Herbicidal Activity ECHCG ([12]; 63 g ai/ha) | Post-emerge Herbicidal Activity ECHCG ([12]; 250 g ai/ha) | Post-emerge Herbicidal Activity SETVI ([13]; 63 g ai/ha) | Post-emerge Herbicidal Activity SETVI ([13]; 250 g ai/ha) | Post-emerge Herbicidal Activity IPOHE ([14]; 63 g ai/ha) | Post-emerge Herbicidal Activity SORHA ([15]; 63 g ai/ha) | Post-emerge Herbicidal Activity SORHA ([15]; 250 g ai/ha) | Post-emerge Herbicidal Activity CHEAL ([16]; 63 g ai/ha) | Post-emerge Herbicidal Activity DIGSA ([17]; 63 g ai/ha) | Post-emerge Herbicidal Activity DIGSA ([17]; 250 g ai/ha) | Post-emerge Herbicidal Activity AMARE ([18]; 63 g ai/ha) | Post-emerge Herbicidal Activity CASOB ([19]; 63 g ai/ha) | Post-emerge Herbicidal Activity CASOB ([19]; 250 g ai/ha) | Post-emerge Herbicidal Activity ABUTH ([20]; 63 g ai/ha) | Post-emerge Herbicidal Activity CORN (crop damage) ([21]; 63 g ai/ha) | Post-emerge Herbicidal Activity CORN (crop damage) ([21]; 250 g ai/ha) | Post-emerge Herbicidal Activity RICE (crop damage) ([22]; 63 g ai/ha) | Post-emerge Herbicidal Activity RICE (crop damage) ([22]; 250 g ai/ha)
80: Pre-emerge Herbicidal Activity DIGSA (phytotoxicity rating, scale 0-100) ([7]; 63 g ai/ha) | Pre-emerge Herbicidal Activity DIGSA (phytotoxicity rating, scale 0-100) ([7]; 250 g ai/ha)
15: Pre-emerge crop damage CORN (phytotoxicity rating, scale 0-100) ([10]; 63 g ai/ha) | Pre-emerge crop damage CORN (phytotoxicity rating, scale 0-100) ([10]; 250 g ai/ha)
100: Pre-emerge Herbicidal Activity AMARE (phytotoxicity rating, scale 0-100) ([1]; 250 g ai/ha) | Pre-emerge Herbicidal Activity IPOHE (phytotoxicity rating, scale 0-100) ([4]; 250 g ai/ha) | Pre-emerge Herbicidal Activity CHEAL (phytotoxicity rating, scale 0-100) ([6]; 250 g ai/ha) | Pre-emerge Herbicidal Activity ABUTH (phytotoxicity rating, scale 0-100) ([9]; 250 g ai/ha)
40: Pre-emerge Herbicidal Activity AMARE (phytotoxicity rating, scale 0-100) ([1]; 63 g ai/ha) | Pre-emerge Herbicidal Activity SORHA (phytotoxicity rating, scale 0-100) ([5]; 63 g ai/ha) | Pre-emerge Herbicidal Activity SORHA (phytotoxicity rating, scale 0-100) ([5]; 250 g ai/ha) | Post-emerge Herbicidal Activity ABUTH ([20]; 250 g ai/ha)
20: Post-emerge Herbicidal Activity AMARE ([18]; 250 g ai/ha)
90: Pre-emerge Herbicidal Activity SETVI (phytotoxicity rating, scale 0-100) ([3]; 63 g ai/ha) | Pre-emerge Herbicidal Activity SETVI (phytotoxicity rating, scale 0-100) ([3]; 250 g ai/ha)
50: Pre-emerge crop damage RICE (phytotoxicity rating, scale 0-100) ([11]; 63 g ai/ha) | Pre-emerge crop damage RICE (phytotoxicity rating, scale 0-100) ([11]; 250 g ai/ha) | Post-emerge Herbicidal Activity IPOHE ([14]; 250 g ai/ha)
60: Pre-emerge Herbicidal Activity CHEAL (phytotoxicity rating, scale 0-100) ([6]; 63 g ai/ha) | Post-emerge Herbicidal Activity CHEAL ([16]; 250 g ai/ha)
